Values joined by “and” are separate entries in the source; they are usually repeats but may differ in a detail not shown here. Equal entries are not always repeated.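 These data come from cells grown in 96-well plates and exposed to compound for 48 hours at five concentrations. Abbreviation: GI50, concentration required for 50% inhibition of growth. TGI marks complete inhibition of growth.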 Where only a bound is given, the exact number is not on record here.

Some test systems named below: COLO 205 colon; MOLT-4 leukemia; NCI-H23 lung; OVCAR-5 ovarian; RPMI-8226 leukemia; SK-OV-3 ovarian; SW-620 colon; UACC-62 melanoma; MDA-MB-231 breast.
Holding throughout (assay): NCI-60 cell line screen, 48 h

For `C=Cc1cncc(C#N)c1CCc1c(C#N)cncc1C=C`, the TGI was over 10 µM in the experiment with COLO 205 colon; over 100 µM with MOLT-4 leukemia; over 100 µM with NCI-H23 lung; over 100 µM in the experiment with OVCAR-5 ovarian; over 100 µM in the experiment with RPMI-8226 leukemia; over 10 µM with SK-OV-3 ovarian. Further, the TGI with SW-620 colon and in the experiment on UACC-62 melanoma was over 100 µM throughout. Also, the GI50 in the experiment on MOLT-4 leukemia, in the experiment with NCI-H23 lung, in the experiment on OVCAR-5 ovarian, in the experiment on RPMI-8226 leukemia, with SW-620 colon and with UACC-62 melanoma was over 100 µM each time.
As for `O=C1C=CC(=O)C2=C1[C@@H](O)C1CC=CC3C(=O)O[C@@H]2C31` (some centres undefined), the TGI was 37 µM in the experiment with COLO 205 colon; 56.5 µM with MOLT-4 leukemia; over 68 µM with NCI-H23 lung; over 100 µM in the experiment with OVCAR-5 ovarian; 57.7 µM with RPMI-8226 leukemia; over 100 µM in the experiment with SK-OV-3 ovarian. Besides, the values for the TGI in the experiment with SW-620 colon and with UACC-62 melanoma were 57 µM and 35.8 µM, respectively.
As to `O=C(O)CC[C@H](NC(=O)c1ccc(-n2nc3ccc(O)cc3nc2=O)cc1)C(=O)O`, the TGI in the experiment with COLO 205 colon, in the experiment with MOLT-4 leukemia, in the experiment with NCI-H23 lung, in the experiment on OVCAR-5 ovarian, in the experiment with RPMI-8226 leukemia and in the experiment with SW-620 colon was over 100 µM throughout. In the experiment on UACC-62 melanoma, this compound returned a TGI of over 100 µM.
`C[C@H](OCc1ccccc1)C(=O)N1CCS(=O)(=O)N2CCC[C@@H]2C1=O`: the TGI with COLO 205 colon, in the experiment on MOLT-4 leukemia, in the experiment on NCI-H23 lung, in the experiment on OVCAR-5 ovarian, with RPMI-8226 leukemia and in the experiment with SK-OV-3 ovarian was over 100 µM each time. For the same compound, the TGI in the experiment with SW-620 colon and in the experiment on UACC-62 melanoma was over 100 µM in each case.
For `CC[C@@]1(O)C(=O)OCc2c1cc1n(c2=O)Cc2cc3cc4c(cc3nc2-1)OCO4`, the GI50 was under 0.0341 µM in the experiment with COLO 205 colon and under 0.0324 µM in the experiment with SK-OV-3 ovarian. Further, the TGI in the experiment with COLO 205 colon was 0.71 µM; in the experiment with MDA-MB-231 breast, over 100 µM; in the experiment with MOLT-4 leukemia, 0.00137 µM; with OVCAR-5 ovarian, 0.122 µM and 0.0372 µM; in the experiment on SW-620 colon, 3.18 µM; in the experiment with UACC-62 melanoma it was 0.00717 µM.
On to `O=C1CCCCC1S(=O)(=O)c1ccccc1` (centres undefined), for which the TGI in the experiment with COLO 205 colon, with MOLT-4 leukemia, with NCI-H23 lung, with OVCAR-5 ovarian, with RPMI-8226 leukemia and in the experiment with SK-OV-3 ovarian was over 100 µM each time. The TGI in the experiment with SW-620 colon and with UACC-62 melanoma was over 100 µM each time.
With `O=S(=O)(/C=C/c1ccc(F)cc1)Cc1ccc(CS(=O)(=O)/C=C/c2ccc(F)cc2)cc1`, the TGI in the experiment with COLO 205 colon, with MOLT-4 leukemia, in the experiment on NCI-H23 lung, in the experiment on OVCAR-5 ovarian, in the experiment on RPMI-8226 leukemia and with SK-OV-3 ovarian was over 100 µM throughout. The TGI in the experiment with SW-620 colon and in the experiment with UACC-62 melanoma was over 100 µM each time.
For `COc1ccc(/C=C/c2cc(OC)c(OC)c(OC)c2)cc1`, the TGI is 11 µM with COLO 205 colon; over 100 µM in the experiment with MOLT-4 leukemia; over 81.5 µM with NCI-H23 lung; over 100 µM with OVCAR-5 ovarian; 12.3 µM with RPMI-8226 leukemia; over 94.6 µM in the experiment with SK-OV-3 ovarian. The TGI in the experiment on SW-620 colon and in the experiment on UACC-62 melanoma was over 100 µM in each case.
On to `CC(CN(C)C)/C(=N\Nc1ccccc1)c1ccccc1` (centres undefined), for which the TGI in the experiment on COLO 205 colon was found to be 2.55 µM; with MOLT-4 leukemia it was 14 µM; in the experiment with NCI-H23 lung, 23.4 µM; with OVCAR-5 ovarian, 5.45 µM; in the experiment on RPMI-8226 leukemia, 67.6 µM; with SK-OV-3 ovarian, 84.1 µM. The TGI is over 100 µM in the experiment on SW-620 colon and 12.3 µM in the experiment with UACC-62 melanoma.
Regarding `CCOc1cc2c(C(=O)CC)c(O)ccc2o1`, the TGI with COLO 205 colon is over 100 µM; with MOLT-4 leukemia, over 100 µM; with NCI-H23 lung, over 100 µM; in the experiment with OVCAR-5 ovarian it was over 100 µM; in the experiment with RPMI-8226 leukemia, over 100 µM; in the experiment with SK-OV-3 ovarian, over 93.6 µM. In addition, the values for the TGI in the experiment with SW-620 colon and in the experiment on UACC-62 melanoma were over 100 µM and over 52.8 µM, respectively.
With `Cc1cn(C2CC3C(COCN3O)O2)c(=O)[nH]c1=O` (centres undefined), the TGI in the experiment on COLO 205 colon, in the experiment with MOLT-4 leukemia, with NCI-H23 lung, in the experiment on OVCAR-5 ovarian, in the experiment on RPMI-8226 leukemia and with SK-OV-3 ovarian was over 100 µM throughout. Also, the TGI in the experiment on SW-620 colon and with UACC-62 melanoma was over 100 µM throughout.
For the compound `C[C@@]12CCC(=O)c3coc(c31)C(=O)c1cc3c(cc12)C(=O)C=CC3=O`, the GI50 with COLO 205 colon, with MOLT-4 leukemia, with OVCAR-5 ovarian, in the experiment on RPMI-8226 leukemia, with SK-OV-3 ovarian and in the experiment with SW-620 colon was over 1 µM each time. Besides, the GI50 in the experiment on UACC-62 melanoma was over 1 µM. In addition, the TGI in the experiment with COLO 205 colon was > 1 µM and 29.7 µM; with MOLT-4 leukemia, over 100 µM; in the experiment with NCI-H23 lung, 26.2 µM; in the experiment on OVCAR-5 ovarian, > 1 µM and 36 µM; with RPMI-8226 leukemia, over 100 µM; in the experiment on SK-OV-3 ovarian, over 100 µM. The TGI with SW-620 colon was > 1 µM and 35.7 µM; in the experiment with UACC-62 melanoma, > 1 µM and 28.9 µM.
Consider `O=C(c1ccc(Cl)cc1Cl)C1[C@H]2C(=O)N(c3ccc(Cc4ccc(N5C(=O)[C@@H]6ON(c7ccccc7)C(C(=O)c7ccc(Cl)cc7Cl)[C@@H]6C5=O)cc4)cc3)C(=O)[C@H]2ON1c1ccccc1` (some centres undefined), for which the TGI in the experiment with COLO 205 colon, with MOLT-4 leukemia, in the experiment on NCI-H23 lung, with OVCAR-5 ovarian, in the experiment on RPMI-8226 leukemia and in the experiment with SK-OV-3 ovarian was over 50 µM each time. Also, the TGI in the experiment with SW-620 colon and in the experiment with UACC-62 melanoma was over 50 µM throughout.
`COc1c(O)c2c3c(cc(C)cc3c1C(C)C)OC2`: the TGI with COLO 205 colon, in the experiment with MOLT-4 leukemia, in the experiment with NCI-H23 lung, in the experiment on OVCAR-5 ovarian, with RPMI-8226 leukemia and with SK-OV-3 ovarian was over 100 µM in each case. Moreover, the TGI with SW-620 colon and in the experiment on UACC-62 melanoma was over 100 µM in each case.
`CCOC(C[C@H](O[Si](C)(C)C(C)(C)C)[C@H]1COC(=S)S1)OCC`: the TGI in the experiment with COLO 205 colon, in the experiment with MOLT-4 leukemia, with NCI-H23 lung, in the experiment on RPMI-8226 leukemia and in the experiment on SW-620 colon was over 100 µM each time.

The values are drawn from PubChem BioAssay (NCI).
